According to patent US7244861B2, “Benzene compound and salt thereof” (Eisai Co., Ltd., priority 2001, dated 2007):

Legend:
Assay in all cases: Measurement of transcriptional activity, GAL4-PPAR LBD chimera / PLAP reporter in CV-1 cells
Type in all cases: cell-based
[1] = target: T1, PPAR β (Homo sapiens, UniProt Q03181); conditions: PLAP activity secreted 24 hours after addition of the compound, read-out: Transcriptional activities EC50 PPAR β
T1 construct: 138–440 (NUC-1); expressed in transfected cells; host or cells: CV-1 (ATCC CCL-70)
T1 sequence (Q03181 138-440): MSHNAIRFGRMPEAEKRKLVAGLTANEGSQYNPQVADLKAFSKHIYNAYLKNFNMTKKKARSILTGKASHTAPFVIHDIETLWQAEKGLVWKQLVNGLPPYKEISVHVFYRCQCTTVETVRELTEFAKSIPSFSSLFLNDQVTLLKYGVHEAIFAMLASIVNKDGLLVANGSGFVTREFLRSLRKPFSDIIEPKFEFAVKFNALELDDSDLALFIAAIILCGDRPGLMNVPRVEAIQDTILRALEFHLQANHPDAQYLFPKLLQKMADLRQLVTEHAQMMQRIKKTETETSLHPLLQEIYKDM
Source text: (§1) Measurement of Transcriptional Activity
(§2) A GAL4-PPAR LBD chimera expression vector was constructed by ligating human PPAR 167–468 (PPAR), 138–440 (NUC-1) and 174–475 (PPAR) amino acid regions (LBD: Ligand Binding Domain) to a yeast transcriptional factor GAL4 1–147 amino acid region. As the reporter gene, PLAP (Placental Alkaline Phosphatase) was used, and this was ligated downstream of a TK promoter containing a 5-copy GAL4 DNA binding element to construct a vector. As host cells, CV-1 (ATCC CCL-70) was used. That is, CV-1 cells were spread at a density of 5×10^5 cells on a 35-mm dish and cultured in 10% FCS/DMEM for 24 hours, and using FuGENE 6 transfection reagent, the cells were co-transfected with the GAL4-PPAR LBD expression vector and GAL4 DBD-TK-PLAP expression vector. 24 hours after this transfection, the cells were spread again on a 96-well plate at a density of 1×10^4/well and further cultured for 24 hours. After 24 hours, the medium was exchanged with DMEM containing 10% FCS, which was previously treated at 65° C. for inactivating intrinsic alkaline phosphatase, and a test compound was added at an arbitrary concentration. The transcriptional activity was determined in terms of PLAP activity secreted 24 hours after addition of the compound, to calculate EC50. The PLAP activity was determined after adding 50 μl assay buffer and 50 μl chemoluminescence substrate to 10 μl culture supernatant and incubating the mixture at room temperature for 1 hour. The transcriptional activities for PPARα, PPARβ(δ) and PPARγ are shown respectively in Table 1.

[2] = target: T2, PPAR γ (Homo sapiens, UniProt P37231); conditions: PLAP activity secreted 24 hours after addition of the compound, read-out: Transcriptional activities EC50 PPAR γ
T2 construct: 174–475 (PPAR) amino acid regions; expressed in transfected cells; host or cells: CV-1 (ATCC CCL-70)
T2 sequence (P37231 174-475 isoform P37231-2): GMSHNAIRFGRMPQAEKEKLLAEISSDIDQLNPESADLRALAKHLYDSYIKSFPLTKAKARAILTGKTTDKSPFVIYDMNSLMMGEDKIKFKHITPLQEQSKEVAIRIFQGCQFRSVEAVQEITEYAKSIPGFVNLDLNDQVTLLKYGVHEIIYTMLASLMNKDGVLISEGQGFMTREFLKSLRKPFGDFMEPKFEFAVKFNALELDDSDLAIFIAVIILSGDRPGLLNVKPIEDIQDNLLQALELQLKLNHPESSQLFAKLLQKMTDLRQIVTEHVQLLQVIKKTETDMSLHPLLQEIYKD
Source text: as §1, §2

[3] = target: T3, PPAR α (Homo sapiens, UniProt Q07869); conditions: PLAP activity secreted 24 hours after addition of the compound, read-out: Transcriptional activities EC50 PPAR α
T3 construct: human PPAR 167–468 (PPAR); expressed in transfected cells; host or cells: CV-1 (ATCC CCL-70)
T3 sequence (Q07869 167-468): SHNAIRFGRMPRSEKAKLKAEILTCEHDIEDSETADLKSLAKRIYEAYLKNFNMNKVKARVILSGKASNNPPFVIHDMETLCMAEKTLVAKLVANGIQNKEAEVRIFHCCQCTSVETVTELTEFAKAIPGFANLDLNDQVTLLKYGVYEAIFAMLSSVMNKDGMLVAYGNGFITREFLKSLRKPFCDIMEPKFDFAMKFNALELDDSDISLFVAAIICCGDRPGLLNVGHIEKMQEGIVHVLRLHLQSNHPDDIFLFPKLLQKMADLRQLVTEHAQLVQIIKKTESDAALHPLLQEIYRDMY
Source text: as §1, §2

EC50 [1] [nM]	EC50 [2] [nM]	EC50 [3] [nM]	SMILES
1000	5.8	10.8	COc1ccc(CC(OC(C)C)C(=O)O)c(OC)c1CNC(=O)c1ccc(OC2CCCC2)cc1Cl (stereo not drawn) [Example 11, 3-(3-[(2-Chloro-4-cyclopentyloxybenzoyl)amino]methyl-2,4-dimethoxyphenyl)-2-isopropoxypropionic acid]
483	52.4	66.5	CC(C)OC(Cc1cc(CNC(=O)c2ccc(C(F)(F)F)cc2F)c2occc2c1)C(=O)O (stereo not drawn) [Example 35]
1600	3.4	17.9	CC(C)Oc1ccc(C(=O)NCc2cc(CC(OC(C)C)C(=O)O)cc3c2OCC3)c(Cl)c1 (stereo not drawn) [Example 42, 3-(7-[(2-Chloro-4-isopropoxybenzoyl)amino]methyl-2,3-dihydrobenzo[b]furan-5-yl)-2-isopropoxypropionic acid]
